How the values were obtained:
R. corallina cells = details: for induction of catechol 2,3-dioxygenase activity: R. corallina, meta pathway marker; for ring cleavage dioxygenase pathway induced (meta / ortho): crude enzyme extracts of cells grown on MMRN supplemented with the xenobiotic
Procedure: (§1) “MMRN” is prepared as a multicomponent stock to avoid the production of uncharacterised compounds during autoclaving. A “basic salts” stock is prepared containing 6 g/L Na2HPO4; 3 g/L KH2PO4; 1 g/L NaCl; 4 g/L (NH4)2SO4; adjusted to pH 7.4 and made up to 989 mls with distilled water and autoclaved. A “100×A salts” solution is prepared consisting of 20 g/L MgSO4; 2000 mg/L FeSO4.7H2O; 200 mg/L FeCl3; 200 mg/L MnSO4.H2O is prepared in distilled water and autoclaved. A “1000×B salts” solution consisting of 500 mg/L ZnSO4.7H2O; 200 mg/L CuCl2·2H2O; 200 mg/L Na2B4O7.10H2O; 100 mg/L (NH4)7Mo6O24.4H2O is prepared in distilled water and autoclaved. To prepare 1 litre of MMRN, sterile solutions of 989 mls basic salts, 10 mls 100×A salts, 1 ml 1000×B salts are combined. For solid media, agar is added to 1.4% w/v. Carbon-energy sources are supplemented to 80 μM final concentrations for soluble molecules, or as vapour for insoluble molecules (where their concentration is decided by their individual partition coefficients generally ranging from 3 to 40 μM). Petri plates or liquid cultures are incubated at 28° C. to 30° C. for up to 72 hours to accumulate sufficient biomass for genetic and biochemical testing.

R. corallina [1] = test: Genetic induction of the toluene degradative pathway, substrate supplied as vapour; format: cell-based, Rhodococcus corallina; details: level in water
Procedure: as §1

R. corallina [2] = test: Growth-inducing substrate test on MMRN; format: cell-based, Rhodococcus corallina
Excerpt: Mycolic acid-containing bacteria may then be screened for specific hydrocarbon-inducible catabolic pathways using MMRN supplemented with the target xenobiotic pollutant. Strains for which the target molecule is growth inducing may then be isolated and used to as a source of genetic regulatory elements for biosensors or as specific biocatalytic functions. Using this protocol mycolic acid containing bacteria have been and may be rapidly identified with novel and useful catabolic properties. This approach is also useful for identification and isolation of mycolic acid containing bacteria with biocatalytic properties.

`O=C(O)c1ccccc1` [benzoate] was tested, and the “induction of catechol 2,3-dioxygenase activity” value (R. corallina cells) was “not” and the “ring cleavage dioxygenase pathway induced (meta / ortho)” value (R. corallina cells) was “exclusively induces the ortho pathway”.

`Oc1ccccc1` [phenol] was tested, and the “ring cleavage dioxygenase pathway induced (meta / ortho)” value (R. corallina cells) was “exclusively induces the ortho pathway”.

In the case of `Cc1ccccc1` [toluene], the “induction of catechol 2,3-dioxygenase activity” value (R. corallina cells) is reported as “induced”, the “ring cleavage dioxygenase pathway induced (meta / ortho)” value (R. corallina cells) is reported as “induced the meta pathway” and the “level at which genetic induction of the toluene degradative pathway occurs” value (R. corallina [1]) is reported as “less than 200 ppm”.

xylene was tested, and the “acts as growth inducing substrate” value (R. corallina [2]) was “does not act as a growth inducing substrate”.
